Literature values, collected in US20140080712A1, “COMPOSITIONS AND METHODS FOR DOUBLE ENCAPSULATION OF A VOLATILE COMPOUND” (AgroFresh Inc., priority 2012, published 2014).

System: ethylene
Settings: freshness management

Compound: CC1=CC1 [Sample 1-MCP, 1-methylcyclopropene]
- concentration effective in blocking ethylene: ~100 ppb
